# Assays:
# [1] = solubility of comparative compound; type: physicochemical; settings: administration without solubilizer was impossible
# [2] = test system: cutaneous blood flow of the dorsum pedis; assay: blood flow increasing effect in anesthetized rats (laser-Doppler flowmetry, AUC); type: in vivo, Male rats; set-up: Blood flow increasing effect: Total AUC: unit not given here; settings: for Blood flow increasing effect: Total AUC / Blood flow increasing effect: Dose (A) required to obtain AUC = 771: rat; for Blood flow increasing effect: Total AUC: injection via jugular vein; for Blood flow increasing effect: Dose (A) required to obtain AUC = 771: AUC 771 = effect of PGE1 lipid emulsion 5 μg/kg i.v.; for Blood flow increasing effect: Relative activity (X): relative to comparative compound = 1, from Dose (A)
# Protocol: (§1) Male rats weighing 200-350 g were anesthetized with urethane (25% urethane, 6 ml/kg, s.c.). The carotid artery and jugular vein were cannulated with polyethylene tubes for measurement of blood pressure and for drug injection, respectively. Blood pressure was obtained with a disposable pressure transducer kit (Spectramed, Ltd) and recorded with a recticoder (model RJG-4128, Nihon kohden, Ltd). Also, blood flow was monitored as cutaneous blood flow of the dorsum pedis using an attachment-type laser-Doppler flowmeter (model ALF21, Advance, Ltd). Measurements were taken until the values recovered to the level observed before injection of drugs. Injection time was about 10 seconds. The hypotensive effect and blood flow increasing effect were calculated as the maximum hypotensive activity (mmHg) and the area under the curve (AUC) after injection of drugs, respectively.
# (§2) The results were represented by the dose required to obtain an effective increase in blood flow (main effect), and by the hypotensive effect (side effect) at the same dose.
# (§3) The compounds of the present invention were administered in the form of liposome formulations (as prepared in Example 3 below). […] The solubility of this comparative compound was very low; thus, administration without solubilizer was impossible.
# The effectiveness of increasing blood flow was determined by the following method.
# (§4) The dry lipid film was dispersed into a 10% maltose solution (3 ml) by using a vortex mixer (type S-100, Taiyokagaku Inc.) and an aqueous suspension with a drug concentration of 1, 3, 10, or 30 μg/ml was obtained. The obtained multilamellar liposome solutions (3 ml) were transferred into plastic tubes and then sonicated with a probe sonicator (type: SONIFIER cell disruptor 200, Branson) at the condition of 50% pulsed operation for 15 minutes. The sonicated solutions were passed through a membrane filter with a pore diameter of 0.2 μm to remove titanium particles and liposome formulations with a mean diameter of 40-70 nm were formed.
# blood pressure = assay: hypotensive effect in anesthetized rats (maximum hypotensive activity); type: in vivo, Male rats; settings: for Hypotensive effect: Maximum hypotension on dose (A): at dose (A) required to obtain AUC = 771; for Hypotensive effect: Maximum hypotension on dose (A) / Hypotensive effect: Maximum hypotension: rat; for Hypotensive effect: Maximum hypotension: injection via jugular vein; for Hypotensive effect: Relative activity (X): relative to comparative compound = 1, at dose (A)
# Protocol: as §1, §2, §3, §4
Compound,solubility [1],Blood flow increasing effect: Total AUC ([2]; dose 3 μg/kg),Blood flow increasing effect: Total AUC ([2]; dose 10 μg/kg),Blood flow increasing effect: Total AUC ([2]; dose 30 μg/kg),Blood flow increasing effect: Dose (A) required to obtain AUC = 771 [2] [µg/kg],Blood flow increasing effect: Relative activity (X) [2],Hypotensive effect: Maximum hypotension on dose (A) (blood pressure) [mmHg],Hypotensive effect: Maximum hypotension (blood pressure; dose 3 μg/kg) [mmHg],Hypotensive effect: Maximum hypotension (blood pressure; dose 10 μg/kg) [mmHg],Hypotensive effect: Maximum hypotension (blood pressure; dose 30 μg/kg) [mmHg],Hypotensive effect: Relative activity (X) (blood pressure),Blood flow increasing effect: Total AUC ([2]; dose 1 μg/kg),Hypotensive effect: Maximum hypotension (blood pressure; dose 1 μg/kg) [mmHg]
"CCCCCCCCCCCCCCCC(=O)OCC(COC(=O)CCCCCCCCCCCCCCC)OC(=O)CCCCCC[C@H]1C(=O)C[C@@H](O)[C@@H]1/C=C/[C@@H](O)CCCCC [Comparative compound, PGE1 1,3-bis(palmitoyloxy)-2-propyl ester, reference compound]",very low,350,710,830,23.6,1,7.1,1,6,8,1,,
"CCCCCCCCCCCC(=O)OCC(COC(=O)CCCCCCCCCCC)OC(=O)CCCCCC[C@H]1C(=O)C[C@@H](O)[C@@H]1/C=C/[C@@H](O)CCCCC [Example 1, PGE1 1,3-bis (dodecanoyloxy)-2-propyl ester]",,483,2566,,3.6,6.6,2.2,1,9,,0.31,116,0
"CCCCCC(=O)OCC(COC(=O)CCCCC)OC(=O)CCCCCC[C@H]1C(=O)C[C@@H](O)[C@@H]1/C=C/[C@@H](O)CCCCC [Example 2, PGE1 1,3-bis (hexanoyloxy)-2-propyl ester]",,1206,3919,,2.2,10.7,6.7,9,19,,0.94,185,4

# Source: patent US5698590A, “Prostaglandin derivatives” (Ono Pharmaceutical Co., Ltd., priority 1995, dated 1997)
